Measured values from publication PMC4864966, “Two unexpected promiscuous activities of the iron–sulfur protein IspH in production of isoprene and isoamylene” (Microbial Cell Factories, 2016).

Tested on: T1, IspH
T1 construct: complete ORF in pET-28a(+) NcoI/XhoI, C-terminal His-tag, E. coli BL21(DE3) with isc operon, [4Fe-4S] cluster, Ni-NTA purified anaerobically
Assay: headspace GC of isoamylene (2-methyl-2-butene and 3-methyl-1-butene) formation; Michaelis-Menten and Lineweaver-Burk
Type: biochemical, Bacillus sp. N16-5
Conditions: 1 mM NADPH, 20 µM Fd, 5 µM FNR, 2 mM DTT, 20 mM Tris-HCl pH 7.8, 150 mM NaCl, 37 °C, anaerobic; DMAPP 0.1 to 1 mM

Km: ~275 µM
Structure (SMILES): CC(C)=CCOP(=O)(O)OP(=O)(O)O [DMAPP]
